Assay results: patent US10294271B1, “Compound, composition, and method for detecting caspase activity and/or apoptosis” (Vanderbilt University, priority 2013, dated 2019)
One block for each compound: values may come before it.

Assays:
SW620 cells = assay: In vitro drug exposure, immunoblot of cleaved PARP and cleaved caspase-3, SW620 cells; format: cell-based, human; details: 24 h, 0-5000 nM
Protocol: (§1) For cell cycle analysis, SW620 and DLD-1 cells were propagated to 50% confluency in 6 cm plates and treated with AZD-1152-hydroxyquinazoline pyrazol anilide (HQPA) (Selleckchem), 0, 10, 100, 1000, or 5000 nM, for 24 or 48 hrs and prepared for flow cytometry as described (2). Propidium iodide (PI)-stained cells were analyzed by flow cytometry (FACStar PLUS, Becton-Dickinson). Data analysis was performed using CellQuest software (Becton-Dickinson) by manually gating to define and quantify sub-G0, G1, S, G2/M, and polyploidy populations. For assay of apoptosis following in vitro AZD-1152-HQPA exposure, SW620 and DLD-1 cells were seeded as sub-confluent monolayer cultures at a density of 1×10^4 per well into 96-well, black wall/bottom plates (BD Biosciences), allowed to adhere for 24 h, and treated with AZD-1152-HQPA, 0, 10, 50, 75, 100, or 1,000 nM, for 24 hrs. Apoptosis was assessed using the Caspase-Glo 3/7 reagent, in accordance with manufacturer's instructions, and analyzed using a Synergy 4 plate reader.
(§2) After 24 h of drug exposure, in vitro cell samples were collected from 10-cm plates. Medium was removed and cell monolayers washed with 1× phosphate buffered saline (PBS) followed by addition of […] of lysis buffer containing: 7 mL of CelLytic M lysis buffer (Sigma), mini protease inhibitor cocktail (Roche), and […] of phosphatase inhibitor cocktail 1 and 2 (Sigma). […]

DLD-1 cells = assay: In vitro drug exposure, immunoblot of cleaved PARP and cleaved caspase-3, DLD-1 cells; format: cell-based, human; details: 24 h, 0-5000 nM
Protocol: as §1, §2

SW620 xenografts = assay: Cleaved caspase-3 immunohistochemistry, SW620 xenografts; format: in vivo, athymic nude mice; details: after imaging Day 5
Protocol: Dual xenograft-bearing mice were sequentially injected with 1×10^7 SW620 and 5×10^6 DLD-1 human CRC cells subcutaneously onto the left or right hind limbs (respectively) of 5- to 6-week old female, athymic nude mice (Harlan Sprague-Dawley). Palpable tumors were observed 2-3 weeks following inoculation. Animals bearing SW620 and DLD-1 xenograft tumors were treated with vehicle or AZD-1152 (25 mg/kg, DMSO) via intraperitoneal injection once daily for five days, analogous to previous work. In vivo PET imaging studies were performed on Day 5, approximately 4-6 h after treatment. Tumor tissues were harvested immediately following conclusion of imaging, fixed for 24 h in 5% buffered formalin, and blocked in paraffin. Immunohistochemistry for cleaved caspase-3 (Cell Signaling, #9664) was carried out as previously described. Tissues were stained using standard H&E methods and reviewed by an expert gastrointestinal pathologist (M. Kay Washington). […] Semi-quantitative IHC analysis was performed using the image processing software ImageJ and is further described below. For semi-quantitative analysis of cleaved caspase-3 IHC, the public domain image processing software ImageJ was used to selectively measure the area of positive staining of each cohort through manual threshold manipulation of hue, pixel saturation, and brightness. […]

[1] = Lipophilicity (log P7.5) by reversed phase HPLC; format: physicochemical; details: for log P7.5: reversed phase HPLC, phosphate buffer pH 7.5, standard curve
Protocol: [^19F]FB-VAD-FMK and [^127I]IZ-VAD-FMK were synthesized as described below. VAD-FMK (American Peptide) and Z-VAD-FMK (TOCRIS Bioscience, #2163) were obtained commercially and used without further purification. Relative enzyme selectivity of [^19F]FB-VAD-FMK compared to parent peptide was evaluated as described below. Lipophilicity measurements (Log P7.5) of peptide derivatives were determined analogously to reported methods and described below.
Lipophilicity characterization of compounds (3) and (5), as well as Z-VAD-FMK, was performed through log P7.5 quantification using methodology analogous to those previously reported (1). Using reversed phase HPLC (Phenomenex Luna C18, 5 μm, 100 Å, 4.6×250 mm) and a (85:15) phosphate buffer (2 mM, pH 7.5) isocratic system (1 mL/min), log P7.5 values were calculated using an average of compound retention times from three individual runs and standard curve derived linear regression. The following standards with known log P values were used for curve development: catechol, aniline, benzene, bromobenze, toluene, ethylbenzene, 2-chlorobiphenyl, biphenyl, 1-chloronaphthalene, 1,2,3-trimethylbenzene, 1,2,3,4-tetrachlorobenzene, 1,2,4,5-tetrabromobenzene, and pentachlorobenzene.

caspase-8 = biological target: T1, caspase-8 (Homo sapiens, UniProt Q14790); assay: Enzyme selectivity assay, caspase-8; format: biochemical; details: fluorescence assay kit, 0.0003-10 μM; compared with caspases-3/6/7
T1 construct: purchased BPS Bioscience
Protocol: (§3) Relative enzyme inhibition of [^19F]FB-VAD-FMK was evaluated against caspase-3/6/7/8 using homogeneous caspase fluorescence assay kits (BPS Bioscience) and compared to parent peptide. Caspase inhibitor dissolved in caspase assay buffer and 1% DMSO (0.0003-10 μM) was combined with the caspase assay substrate and enzyme at room temperature for 30 min in accordance with the manufacturer's instructions. Fluorescence intensity was measured at an excitation of 360 nm and an emission of 460 nm using an Infinite M1000 microplate reader (Tecan).

[2] = test system: caspase-3/7 activity in DiFi cells; assay: Cellular caspase inhibition assay (Caspase-Glo 3/7); format: cell-based
Protocol: DiFi cells were propagated in Dulbecco's Modified Eagle's Medium (DMEM, Mediatech) and supplemented with 10% fetal bovine serum (Atlanta Biologicals) and 1 mg/mL gentamycin sulfate (Gibco) in a 95% humidity, 5% CO2, 37° C. atmosphere. Cells were seeded as sub-confluent monolayer cultures at a density of 1×10^4 per well into 96-well, black wall/bottom plates (BD Biosciences) and allowed to adhere for 24 h at 37° C. […] Cell media was then replaced with 1×PBS containing inhibitor (0, 10, 100, 1000, 10000 nM) and incubated at 37° C. for 30 min Inhibition was assessed using Caspase-Glo 3/7 reagent in accordance with the manufacturer's instructions. Luminescence was quantified using a Synergy 4 plate reader.

caspase-3 = biological target: T2, caspase-3 (Homo sapiens, UniProt P42574); assay: Enzyme selectivity assay, caspase-3; format: biochemical; details: fluorescence assay kit, 0.0003-10 μM
T2 construct: purchased BPS Bioscience
T2 sequence (P42574 29-175 limits assumed): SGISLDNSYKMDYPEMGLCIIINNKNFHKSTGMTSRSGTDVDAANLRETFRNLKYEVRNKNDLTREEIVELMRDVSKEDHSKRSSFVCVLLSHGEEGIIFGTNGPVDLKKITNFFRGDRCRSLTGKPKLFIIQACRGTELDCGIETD
T2 sequence (P42574 176-277 limits assumed): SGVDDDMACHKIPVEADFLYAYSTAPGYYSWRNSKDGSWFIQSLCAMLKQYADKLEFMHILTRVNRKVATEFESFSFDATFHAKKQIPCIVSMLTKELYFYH
Protocol: as §3

caspase-7 = biological target: T3, caspase-7 (Homo sapiens, UniProt P55210); assay: Enzyme selectivity assay, caspase-7; format: biochemical; details: fluorescence assay kit, 0.0003-10 μM
T3 construct: purchased BPS Bioscience
T3 sequence (P55210 24-198 limits assumed): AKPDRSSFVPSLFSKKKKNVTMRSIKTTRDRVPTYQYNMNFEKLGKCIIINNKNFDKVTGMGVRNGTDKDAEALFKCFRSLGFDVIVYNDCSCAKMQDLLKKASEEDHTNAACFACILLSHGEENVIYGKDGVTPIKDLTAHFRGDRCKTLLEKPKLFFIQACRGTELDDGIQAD
T3 sequence (P55210 207-303 limits assumed): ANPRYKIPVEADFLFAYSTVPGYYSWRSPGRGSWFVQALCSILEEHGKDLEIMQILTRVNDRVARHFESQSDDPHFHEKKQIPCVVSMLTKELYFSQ
Protocol: as §3

caspase-6 = biological target: T4, caspase-6 (Homo sapiens, UniProt P55212); assay: Enzyme selectivity assay, caspase-6; format: biochemical; details: fluorescence assay kit, 0.0003-10 μM
T4 construct: purchased BPS Bioscience
T4 sequence (P55212 24-179 limits assumed): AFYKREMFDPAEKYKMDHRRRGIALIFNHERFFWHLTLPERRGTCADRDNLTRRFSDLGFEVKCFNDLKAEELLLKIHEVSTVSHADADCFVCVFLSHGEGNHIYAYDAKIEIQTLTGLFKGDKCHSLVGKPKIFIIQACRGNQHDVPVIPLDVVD
T4 sequence (P55212 194-293 limits assumed): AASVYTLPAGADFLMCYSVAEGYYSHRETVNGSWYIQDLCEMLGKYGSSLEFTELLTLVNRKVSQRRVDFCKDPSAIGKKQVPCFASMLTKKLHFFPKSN
Protocol: as §3

[3] = in vivo
[4] = parameters: species or system male C57BL/6 mice; details: mouse, in vivo, iv
Protocol: Studies involving animals were conducted in accordance with federal and institutional guidelines. Biodistribution studies were performed using male C57BL/6 mice. A detailed description of in vitro drug response studies that support the subsequently described animal models and drug therapies is provided below. For all imaging studies, mice were maintained under 2% isofluorane anesthesia in 100% oxygen at 2 L/min and kept warm via a circulating water heating pad for the duration of the PET scan. Small-animal PET imaging was performed using a dedicated Concorde Microsystems Focus 220 microPET scanner (Siemens Preclinical Solutions). Animals were administered 7.4-9.3 MBq of [^18F]FB-VAD-FMK via intravenous injection. Both static and dynamic data sets were acquired. For static scans, animals were allowed free access to food and water during a 20-40 minute uptake period, followed by anesthetization and a 20-minute image acquisition. Analogously, sixty minute dynamic acquisitions for all xenografts were initiated at the time of [^18F]FB-VAD-FMK injection. Radiochemical preparation of [^18F]FB-VAD-FMK (Fig. S3) was performed as described above. The in vivo biodistribution of [^18F]FB-VAD-FMK was evaluated by ex vivo tissue counting at 60 min post-administration and correlative PET imaging up to 75 min post-administration.

T1 sequence (Q14790 217-374 limits assumed): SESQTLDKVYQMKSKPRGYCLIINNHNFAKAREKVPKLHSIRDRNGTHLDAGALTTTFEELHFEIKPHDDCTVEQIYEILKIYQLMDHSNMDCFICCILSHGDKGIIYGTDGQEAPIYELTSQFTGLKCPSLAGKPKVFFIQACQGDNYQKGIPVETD
T1 sequence (Q14790 385-479 limits assumed): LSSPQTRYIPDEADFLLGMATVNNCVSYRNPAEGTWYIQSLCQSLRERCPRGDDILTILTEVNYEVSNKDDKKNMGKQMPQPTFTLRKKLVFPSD

Compound: CCN(CCO)CCCOc1ccc2c(Nc3cc(CC(=O)Nc4cccc(F)c4)[nH]n3)ncnc2c1 [AZD-1152-HQPA, AZD-1152-hydroxyquinazoline pyrazol anilide]
- cleaved PARP and cleaved caspase-3 levels (SW620 cells): concentration-dependent increases
- cleaved PARP and cleaved caspase-3 levels (DLD-1 cells): concentration-dependent increases

Compound: CCN(CCCOc1ccc2c(Nc3cc(CC(=O)Nc4cccc(F)c4)n[nH]3)ncnc2c1)CCOP(=O)(O)O [AZD-1152]
- caspase-3 immunoreactivity compared to vehicle (SW620 xenografts): elevated caspase-3 immunoreactivity

Compound: Val-Ala-Asp(OMe)-fluoromethylketone [VAD-FMK, American Peptide, reference compound]
- inhibition potency, caspase-8 (caspase-8): slightly greater potency
- inhibition potency, caspase-3 (caspase-3): single micro molar potency
- inhibition potency, caspase-7 (caspase-7): single micro molar potency
- inhibition potency, caspase-6 (caspase-6): single micro molar potency

Compound: [^18F]4-fluorobenzylcarbonyl-Val-Ala-Asp(OMe)-fluoromethylketone [[^18F]FB-VAD-FMK]
- parent compound in bile and urine samples [3]: ≥ 50%
- radioactivity in brain, lung, or bone [4]: Very little radioactivity
- tissue activity in kidneys and liver [4]: greatest activity

Compound: benzyloxycarbonyl-Val-Ala-Asp(OMe)-fluoromethylketone [Z-VAD-FMK, obtained commercially (TOCRIS Bioscience, #2163), reference compound]
- log P7.5 [1]: 2.20

Continued, in another order:

- times less lipophilic than Z-VAD-FMK and [^127I]IZ-VAD-FMK ([1]; from log P7.5 values): 50-100 times
- log P7.5 [1]: 1.41
- inhibition potency, caspase-8 (caspase-8): slightly greater potency
- inhibition potency, caspase-3 (caspase-3): single micro molar potency
- inhibition potency, caspase-7 (caspase-7): single micro molar potency
- inhibition potency, caspase-6 (caspase-6): single micro molar potency
Compound: COC(=O)C[C@H](NC(=O)[C@H](C)NC(=O)[C@@H](NC(=O)c1ccc(F)cc1)C(C)C)C(=O)CF [[^19F]FB-VAD-FMK]
- inhibition of caspase-3/7 activity ([2]; DiFi cells in log-phase growth (untreated)): nanomolar concentrations
- inhibition of caspase-3/7 activity ([2]; DiFi cells, apoptosis induced by cetuximab 0.5 μg/mL 24 h): comparable efficacy to the parent peptide

- log P7.5 [1]: 2.38
Compound: [^127I]4-iodobenzyloxycarbonyl-Val-Ala-Asp(OMe)-fluoromethylketone [[^127I]IZ-VAD-FMK]
